Paper PMC4992173, “Divergent synthesis and identification of the cellular targets of deoxyelephantopins” (Nature Communications, 2016)

Biological target: T1, PPARγ C176A (Homo sapiens, UniProt P37231, C176A)
T1 construct: host or cells: 293T
Test: Gel-based competitive IC50 determination in 293T lysates: C176A PPARγ
Assay type: binding
Conditions: C176A PPARγ expressed in 293T cells, lysate, 1 h, then 10 μM 24c-Cy3
Excerpt: Finally, we sought to understand the molecular basis for PPARγ binding by the synthetic analogues of deoxyelephantopin through identification of the precise covalently modified amino acid site. There is literature precedent for oxidized fatty acids containing an α,β-unsaturated ketone to form a covalent bond with a cysteine in the ligand-binding site of PPARγ[53]. More recently, synthetic ligands binding reversibly to a distinct site were identified. […] Bearing in mind that the structurally simplified, and thus less prone to MS/MS fragmentation, probe 23c binds PPARγ as efficiently as 24c (Supplementary Fig. 13), we treated the recombinant nuclear receptor with the former compound, digested the protein and analysed the resulting peptides by LC–MS/MS. […]
Supplementary figure 21: Top: Fluorescence gels corresponding to the IC50 curves presented in the main text Figure 8b. γ fluorescence signal in percentage after 19a treatment. […]
Biological materials. […] Protein concentration was determined using the Bradford assay (Bio-Rad).
Cell culture and preparation of lysates. […] Cells were lysed by sonication to form cell lysates and protein concentration was determined using the Bradford […]

T1 sequence (P37231 whole entry C176A): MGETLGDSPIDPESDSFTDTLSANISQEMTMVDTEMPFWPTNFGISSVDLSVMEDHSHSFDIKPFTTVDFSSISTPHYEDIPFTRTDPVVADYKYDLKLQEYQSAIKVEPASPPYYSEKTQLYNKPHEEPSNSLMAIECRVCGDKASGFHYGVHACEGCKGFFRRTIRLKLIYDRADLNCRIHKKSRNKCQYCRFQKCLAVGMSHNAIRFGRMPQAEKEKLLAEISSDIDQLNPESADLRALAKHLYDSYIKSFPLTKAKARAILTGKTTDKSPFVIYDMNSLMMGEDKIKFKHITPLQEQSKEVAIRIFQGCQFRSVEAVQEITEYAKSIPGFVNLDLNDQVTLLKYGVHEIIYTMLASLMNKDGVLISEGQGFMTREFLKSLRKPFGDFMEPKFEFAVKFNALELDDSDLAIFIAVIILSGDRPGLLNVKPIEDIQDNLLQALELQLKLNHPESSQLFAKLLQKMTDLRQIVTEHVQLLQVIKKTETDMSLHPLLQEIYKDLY

IC50: 33 µM
SMILES: C=C(C)C(=O)O[C@H]1CC2=C[C@H](C/C=C\[C@H]3OC(=O)C(=C)[C@H]13)OC2=O [19a]
